This is an account of results in US11072585B2 (PharmAkea, Inc., priority 2015, dated 2021).

In general, IC50 refers to the concentration that inhibits the measured activity by half.

Counter-ions that a name gives are not always drawn.

Chain of human LOXL2 (Q9Y4K0 26-774): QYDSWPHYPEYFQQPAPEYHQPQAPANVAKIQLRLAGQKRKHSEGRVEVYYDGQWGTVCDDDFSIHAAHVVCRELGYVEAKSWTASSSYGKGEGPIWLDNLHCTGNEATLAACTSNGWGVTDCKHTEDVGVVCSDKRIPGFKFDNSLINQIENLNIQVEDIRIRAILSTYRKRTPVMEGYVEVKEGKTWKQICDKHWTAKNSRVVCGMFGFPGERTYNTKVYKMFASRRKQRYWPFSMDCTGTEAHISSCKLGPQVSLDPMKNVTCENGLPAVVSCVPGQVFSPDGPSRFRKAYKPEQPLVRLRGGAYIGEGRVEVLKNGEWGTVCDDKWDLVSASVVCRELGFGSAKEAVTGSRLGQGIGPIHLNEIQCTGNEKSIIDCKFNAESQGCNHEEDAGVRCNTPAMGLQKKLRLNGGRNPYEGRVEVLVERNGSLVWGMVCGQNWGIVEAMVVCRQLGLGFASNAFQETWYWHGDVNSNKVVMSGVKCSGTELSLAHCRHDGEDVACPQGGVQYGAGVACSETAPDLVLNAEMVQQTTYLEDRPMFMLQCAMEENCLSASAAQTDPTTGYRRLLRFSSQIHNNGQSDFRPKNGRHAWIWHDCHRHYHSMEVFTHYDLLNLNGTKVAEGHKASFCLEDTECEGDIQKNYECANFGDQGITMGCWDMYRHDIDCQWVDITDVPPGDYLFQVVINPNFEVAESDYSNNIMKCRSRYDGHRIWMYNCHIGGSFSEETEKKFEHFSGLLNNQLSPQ

This assay has as its target human LOXL2 (Homo sapiens (Human), UniProt Q9Y4K0). The assay is described as follows: Human LOXL2 amine oxidase activity assay (Amplex Red). The conditions noted are these: concentrated conditioned media from CHO cells stably expressing human LOXL2; 2 h at 37° C. with compound; DAP substrate. It is filed as biochemical. The gist of the method: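 Concentrated conditioned medium from CHO cells stably expressing human LOXL2 was preincubated with compound for 2 h at 37 °C in 50 mM borate, pH 8. 1,5-diaminopentane substrate and Amplex Red/HRP were then added. Fluorescence (544/590) was read kinetically every 2 min for 1 h, with activity taken from the linear slope.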
For the molecule `NCc1cc(Oc2cccc(Oc3ccccc3)c2)nc(C(F)(F)F)c1` [Compound 1-3, (2-(3-Phenoxyphenoxy)-6-(trifluoromethyl)pyridin-4-yl)methanamine trifluoroacetate], the IC50 is less than 300 nM. With `C#C[C@H](CC(=O)O)NC(=O)c1cccc(Oc2cc(CN)cc(C(F)(F)F)n2)c1` [Compound 1-221, (S)-3-(3-((4-(aminomethyl)-6-(trifluoromethyl)pyridin-2-yl)oxy)benzamido)pent-4-ynoic acid], the IC50 was in the range of 300 to 1000 nM.

As to `NCc1cc(Oc2cccc(C(=O)N3CC[C@H](F)C3)c2)nc(C(F)(F)F)c1` [Compound 1-213, (S)-(3-((4-(Aminomethyl)-6-(trifluoromethyl)pyridin-2-yl)oxy)phenyl)(3-fluoropyrrolidin-1-yl)methanone hydrochloride], the IC50 is less than 300 nM. `NCc1cc(Oc2cccc(C(=O)NC[C@@H](O)CO)c2)nc(C(F)(F)F)c1` [Compound 1-33, (R)-3-((4-(Aminomethyl)-6-(trifluoromethyl)pyridin-2-yl)oxy)-N-(2,3-dihydroxypropyl)benzamide hydrochloride]: the IC50 was less than 300 nM. For the molecule `C#CCCCCNC(=O)c1cccc(Oc2cc(CN)cc(C(F)(F)F)n2)c1` [Compound 1-216, 3-((4-(Aminomethyl)-6-(trifluoromethyl)pyridin-2-yl)oxy)-N-(hex-5-yn-1-yl)benzamide trifluoroacetate], the IC50 is less than 300 nM. As to `NCc1cc(Oc2cccc(C(=O)Nc3ccccc3N)c2)nc(C(F)(F)F)c1` [Compound 1-225, 3-((4-(Aminomethyl)-6-(trifluoromethyl)pyridin-2-yl)oxy)-N-(2-aminophenyl)benzamide hydrochloride], the IC50 is less than 300 nM. The value for `NCc1cc(Oc2cccc(C(=O)N3CCC[C@H](CO)C3)c2)nc(C(F)(F)F)c1` [Compound 1-203, (S)-(3-((4-(Aminomethyl)-6-(trifluoromethyl)pyridin-2-yl)oxy)phenyl)(3-(hydroxymethyl)piperidin-1-yl)methanone hydrochloride] was less than 300 nM; that for `NCc1cc(Oc2cccc(C(=O)NCCO)c2)nc(C(F)(F)F)c1` [Compound 1-16, 3-((4-(Aminomethyl)-6-(trifluoromethyl)pyridin-2-yl)oxy)-N-(2-hydroxyethyl)benzamide hydrochloride] was less than 300 nM. In the case of “N′-(4-(Aminomethyl)-6-(trifluoromethyl)pyridin-2-yl)-N^3-(2-(methylsulfonyl)ethyl)isophthalamide trifluoroacetate [Compound 1-242]”, the IC50 was less than 300 nM.

With `NCc1cc(Oc2cccc(C(=O)NCCCCc3cn(-c4ccccc4)nn3)c2)nc(C(F)(F)F)c1` [Compound 1-217, 3-((4-(Aminomethyl)-6-(trifluoromethyl)pyridin-2-yl)oxy)-N-(4-(1-phenyl-1H-1,2,3-triazol-4-yl)butyl)benzamide hydrochloride], the IC50 was less than 300 nM. On to `Cc1cc(=O)oc2cc(NC(=O)c3cccc(Oc4cc(CN)cc(C(F)(F)F)n4)c3)ccc12` [Compound 1-249, 3-((4-(Aminomethyl)-6-(trifluoromethyl)pyridin-2-yl)oxy)-N-(4-methyl-2-oxo-2H-chromen-7-yl)benzamide hydrochloride], for which the IC50 is less than 300 nM. Consider `NCc1cc(O[C@H]2CCN(C(=O)Nc3ccccc3)C2)nc(C(F)(F)F)c1` [Compound 1-40, (S)-3-((4-(Aminomethyl)-6-(trifluoromethyl)pyridin-2-yl)oxy)-N-phenylpyrrolidine-1-carboxamide trifluoroacetate], for which the IC50 is less than 300 nM. The value for `NCc1cc(Sc2cccc(C(=O)Nc3ccccc3)c2)nc(C(F)(F)F)c1` [Compound 1-68, 3-((4-(Aminomethyl)-6-(trifluoromethyl)pyridin-2-yl)thio)-N-phenylbenzamide hydrochloride] was less than 300 nM; that for `NCc1cc(O[C@H]2CCCN(C(=O)c3cc(=O)c4ccccc4o3)C2)nc(C(F)(F)F)c1` [Compound 1-48, (S)-2-(3-((4-(Aminomethyl)-6-(trifluoromethyl)pyridin-2-yl)oxy)piperidine-1-carbonyl)-4H-chromen-4-one trifluoroacetate] was less than 300 nM. With `CS(=O)(=O)CCNC(=O)c1cncc(Oc2cc(CN)cc(C(F)(F)F)n2)c1` [Compound 1-53, 5-((4-(Aminomethyl)-6-(trifluoromethyl)pyridin-2-yl)oxy)-N-(2-(methylsulfonyl)ethyl)nicotinamide hydrochloride], the IC50 is less than 300 nM. Next, `CN(C(=O)Cn1ccc2c(Oc3cc(CN)cc(C(F)(F)F)n3)cccc21)c1ccccc1` [Compound 1-38, 2-(4-((4-(Aminomethyl)-6-(trifluoromethyl)pyridin-2-yl)oxy)-1H-indol-1-yl)-N-methyl-N-phenylacetamide hydrochloride]: less than 300 nM; `NCc1cc(Oc2cccc(C(=O)N3CC[C@@H](N)C3)c2)nc(C(F)(F)F)c1` [Compound 1-22, (R)-(3-((4-(Aminomethyl)-6-(trifluoromethyl)pyridin-2-yl)oxy)phenyl)(3-aminopyrrolidin-1-yl)methanone dihydrochloride]: less than 300 nM. Regarding `CS(=O)(=O)CCNC(=O)c1cccc(CNc2cc(CN)cc(C(F)(F)F)n2)c1` [Compound 1-106, 3-(((4-(Aminomethyl)-6-(trifluoromethyl)pyridin-2-yl)amino)methyl)-N-(2-(methylsulfonyl)ethyl)benzamide hydrochloride], the IC50 was less than 300 nM. With `NCc1cc(O[C@@H]2CCN(C(=O)Nc3ccccc3)C2)nc(C(F)(F)F)c1` [Compound 1-39, (R)-3-((4-(Aminomethyl)-6-(trifluoromethyl)pyridin-2-yl)oxy)-N-phenylpyrrolidine-1-carboxamide trifluoroacetate], the IC50 was less than 300 nM. The value for `NCc1cc(Oc2cccc(C(=O)NCC3(O)CCC3)c2)nc(C(F)(F)F)c1` [Compound 1-201, 3-((4-(Aminomethyl)-6-(trifluoromethyl)pyridin-2-yl)oxy)-N-((1-hydroxycyclobutyl)methyl)benzamide hydrochloride] was less than 300 nM; that for `Cc1cc(=O)n(Cc2cc(CN)cc(C(F)(F)F)n2)c(=O)n1Cc1ccccc1` [Compound 1-134, 3-((4-(Aminomethyl)-6-(trifluoromethyl)pyridin-2-yl)methyl)-1-benzyl-6-methylpyrimidine-2,4(1H,3H)-dione hydrochloride] was less than 300 nM. As to `NCc1cc(Oc2cccc3c2CCC(=O)N3CC(=O)O)nc(C(F)(F)F)c1` [Compound 1-236, 2-(5-((4-(Aminomethyl)-6-(trifluoromethyl)pyridin-2-yl)oxy)-2-oxo-3,4-dihydroquinolin-1(2H)-yl)acetic acid hydrochloride], the IC50 was greater than 1000 nM. For `C#CCNC(=O)c1cccc(Oc2cc(CN)cc(C(F)(F)F)n2)c1` [Compound 1-248, 3-((4-(Aminomethyl)-6-(trifluoromethyl)pyridin-2-yl)oxy)-N-(prop-2-yn-1-yl)benzamide hydrochloride], the IC50 is less than 300 nM. The value for `CC1(O)CCN(C(=O)c2cccc(Oc3cc(CN)cc(C(F)(F)F)n3)c2)CC1` [Compound 1-205, (3-((4-(Aminomethyl)-6-(trifluoromethyl)pyridin-2-yl)oxy)phenyl)(4-hydroxy-4-methylpiperidin-1-yl)methanone hydrochloride] was less than 300 nM; that for `NCc1cc(Oc2cc(C(=O)N3C[C@@H](O)[C@H](F)C3)ccc2O)nc(C(F)(F)F)c1` (racemic) [Compound 1-229, Racemic-trans-(3-((4-(aminomethyl)-6-(trifluoromethyl)pyridin-2-yl)oxy)-4-hydroxyphenyl)(3-fluoro-4-hydroxypyrrolidin-1-yl)methanone hydrochloride] was 300 to 1000 nM. The value for `NCc1cc(Oc2cccc(-n3ccccc3=O)c2)nc(C(F)(F)F)c1` [Compound 1-169, 1-(3-((4-(Aminomethyl)-6-(trifluoromethyl)pyridin-2-yl)oxy)phenyl)pyridin-2(1H)-one] was less than 300 nM; that for `CC(C)C(=O)N1CCC[C@H](Oc2cc(CN)cc(C(F)(F)F)n2)C1` [Compound 1-52, (S)-1-(3-((4-(Aminomethyl)-6-(trifluoromethyl)pyridin-2-yl)oxy)piperidin-1-yl)-2-methylpropan-1-one trifluoroacetate] was less than 300 nM. For the molecule `CONC(=O)c1cccc(Oc2cc(CN)cc(C(F)(F)F)n2)c1` [Compound 1-219, 3-((4-(Aminomethyl)-6-(trifluoromethyl)pyridin-2-yl)oxy)-N-methoxybenzamide hydrochloride], the IC50 is less than 300 nM. For `NCc1cc(Oc2cc(C(=O)N3C[C@@H](O)[C@H](F)C3)ccc2OCc2ccccc2)nc(C(F)(F)F)c1` (racemic) [Compound 1-231, Racemic-trans-(3-((4-(aminomethyl)-6-(trifluoromethyl)pyridin-2-yl)oxy)-4-(benzyloxy)phenyl)(3-fluoro-4-hydroxypyrrolidin-1-yl)methanone], the IC50 was less than 300 nM. The value for `NCc1cc(Oc2cccc(C(=O)N[C@@H]3CCC[C@@H]3O)c2)nc(C(F)(F)F)c1` [Compound 1-209, 3-((4-(Aminomethyl)-6-(trifluoromethyl)pyridin-2-yl)oxy)-N-((1R,2S)-2-hydroxycyclopentyl)benzamide hydrochloride] was less than 300 nM; that for `NCc1cc(Oc2cccc(-c3cn[nH]c3)c2)nc(C(F)(F)F)c1` [Compound 1-6, (2-(3-(1H-Pyrazol-4-yl)phenoxy)-6-(trifluoromethyl)pyridin-4-yl)methanamine trifluoroacetate] was less than 300 nM; that for `CCOC(=O)CN1C(=O)CCc2c(Oc3cc(CN)cc(C(F)(F)F)n3)cccc21` [Compound 1-235, Ethyl 2-(5-((4-(aminomethyl)-6-(trifluoromethyl)pyridin-2-yl)oxy)-2-oxo-3,4-dihydroquinolin-1(2H)-yl)acetate] was 300 to 1000 nM.
